Several values for one entry are separate records, joined by “and”; a condition that tells them apart may be missing. Equal values may be shown once. Read-outs that look alike come from different tables or passages of the source. Marks after values point to notes of the source that are not given here.
System: mesencephalic dopaminergic neurons
Assay type: cell-based, rat
Settings: for TH-immunoreactive cell survival, Mean: 48 hours
Description: Effects of Jnk Inhibition on Dopaminergic Neuronal Survival, In Vitro Following Treatment with the Neurotoxin MPP^+.
This protocol produces a yield of dopaminergic neurons of around 0.5-1%; this is equivalent to roughly 1000-1500 dopaminergic cells in the well. 14 day gestation Sprague-Dawley rats were killed by stunning and exsanguination. Embryos were removed and decapitated, and the ventral mesencephalon dissected from the brain. The tissue was dissociated by trypsin (0.25% in Hank's BSS) digestion for 20 minutes. The trypsin was neutralized by addition of an excess of serum containing medium and the cells centrifuged at 1000 rpm for 10 minutes. The cell pellet was resuspended in DMEM/10% FCS, and a single cell suspension prepared by mechanical dissociation and passage through a 70 μm cell strainer. Trypan blue excluding cells were counted in a haemocytometer, and cells were plated into poly-D-lysine treated 8-well chamber slides at a density of 2×10^5 cells/well in Dulbecco's MEM supplemented with 10% FCS. Cultures were incubated for 24 hours at 37° C./5% CO2, then the medium was replaced with DMEM supplemented with SATO (final concentration; 4.3 mg/ml BSA, 0.77 μg/ml progesterone, 20 μg/ml putrescine, 0.49 μg/ml L-thyroxine, 0.048 μg/ml selenium and 0.42 μg/ml tri-iodo-thyronine).
Cultures were incubated for 5 days, then removed from the incubator and treated with compounds. Jnk inhibitors were added at concentrations ranging from 1 nM to 1 μM to 4 independent wells per concentration. 15 minutes following addition of Jnk inhibitors, MPP^+ was added directly to the wells to give a final concentration in the well of 10 μM. 4 wells were treated with MPP^+ 10 μM alone, and 4 left as untreated controls. zVAD-fmk 300 μM and Example 2 500 nM were used as positive controls. Once compounds and MPP^+ had been added, cultures were returned to the incubator at 37° C./5% CO2 for a further 48 hours prior to fixation and immunostaining.
To determine the numbers of surviving dopaminergic neurons, immunocytochemistry was carried out using a rabbit polyclonal antibody raised against TH. Non-specific binding sites were blocked using 10% normal goat serum in PBS, then primary antibody was added at 4° C. overnight. The next day, the cells were washed and treated with biotin conjugated goat anti-rabbit IgG for one hour, followed by peroxidase conjugated avidin biotin complex, both made up from the Vectastain® Elite ABC kit (Vector Laboratories, Burlingame, Calif.) according to the manufacturer's instructions. Staining was visualized using Vector™ SG (Vector Laboratories) insoluble peroxidase substrate according to the manufacturer's instructions. Following staining, the gaskets were removed from the chamber slides, and the slides mounted using aqueous mountant. Slides were blinded by another investigator before quantification of TH-immunoreactive cell survival. To determine TH-immunoreactive cell survival, cells were visualized using transmitted light on a Zeiss Axiovert inverted microscope using a 10X objective. Counts were made of all the TH-immunoreactive cells present in each well.
Data analysis was performed using a one way analysis of variance, followed by Dunnett's t-test. In each case the data refer to one representative experiment, with four independent replicates for each data point. […] Data shown are normalized to percentage of control response; all statistical analyses, however, were carried out on the cell counts.

CCCn1c(C2CCN(C)CC2)nc(-c2ccc(Cl)c(Cl)c2)c1-c1ccnc(NC2CC2)n1 [Example 2, Cyclopropyl-{4-[5-(3,4-dichlorophenyl)-2-[(1-methyl)-piperidin]-4-yl-3-propyl-3H-imidazol-4-yl]-pyrimidin-2-yl}amine]
TH-immunoreactive cell survival, Mean (1 nM + MPP+ 10 μM): 54.72 % of untreated control | TH-immunoreactive cell survival, Mean (10 nM + MPP+ 10 μM): 60.77* % of untreated control | TH-immunoreactive cell survival, Mean (100 nM + MPP+ 10 μM): 59.95* % of untreated control | TH-immunoreactive cell survival, Mean (500 nM + MPP+ 10 μM): 72 % of untreated control and 72.41** % of untreated control | TH-immunoreactive cell survival, Mean (1 μM + MPP+ 10 μM): 71.14** % of untreated control | TH-immunoreactive cell survival, Mean (10 μM + MPP+ 10 μM): 32.08 % of untreated control | Non-specific toxicity (10 μM treatment): Non-specific toxicity is observed | Concentrations giving significant increases in survival (MPP+ 10 μM, p<0.05): ≥ 10 nM

Source: patent US20020032183A1, “Use of (di-substituted-phenyl)-pyrimidinyl-imidazole derivatives as JNK-inhibitors” (priority 2000, published 2002)
